These results are taken from patent publication US11117931B2, “Antimicrobial peptide derived from Hp1404 peptide and uses thereof” (priority 2017, dated 2021).

Where no end group is shown, it is not given here.

Series [1] relates to Pseudomonas aeruginosa strain 1034. Description: In vivo antimicrobial activity, infected skin wound. Further details: species or system BALB/c mouse. How it is done:
By using Hp1404-T1e found to have the most excellent antimicrobial activity among the peptides that are prepared by the method of Example 1, in vivo antimicrobial activity was measured. Specifically, among the Pseudomonas aeruginosa strains, strain 1034 was selected and tested. The strain was prepared by washing 3 times with PBS buffer. Ciprofloxacin antibiotic was used as a control group. A BALB/c mouse (6 week old) was shaved clean and a wound with pre-determined size was created thereon. Then, the wound site was injected intracutaneously with Pseudomonas aeruginosa strain 1034 ([…], 2×10^5 CFU/ml). After the bacterial infection, the peptide and antibiotic, each prepared at a concentration of 0.1 mg/ml and 0.2 mg/ml, respectively, were intracutaneously injected, and the observation was made everyday. On each day, the skin tissues were sampled and smeared on an NB solid medium. The smeared medium was incubated in an incubator for 18 hours, and the number of grown colonies was counted and expressed in %.

Series [2] deals with L. monocytogenes. Kind of series: MIC, L. monocytogenes. Format: cell-based, Listeria monocytogenes. The note with it: L. monocytogenes (KCTC 3710), 18 hours at 37° C. The text has this:
(§1) To compare the antimicrobial activity among the peptides produced by the method of Example 1, the inventors of the present invention measured the minimal growth inhibitory concentration (MIC), which is minimum concentration of the peptide showing no dissociation of bacterial cells.
(§2) Specifically, the bacterial strain described in the following Table 2 was purchased and cultured to a mid-log phase in each medium with a composition suitable for each strain. Then, after dilution to bacterial cell concentration of 2×10^4 cells/100 μl, the cells were inoculated to a microtiter plate (NUNC, USA). Thereafter, Hp1404-T1, Hp1404-T1a, Hp1404-T1b, Hp1404-T1c, Hp1404-T1d or Hp1404-T1e peptide which has been synthesized in Example 1 above was subjected to serial dilution, ½ times for each, with BSA (bovine serum albumin) solution in a 96-well plate. After adding the cells to a plate, the cells were cultured for 18 hours at 37° C. By using a microtiter plate reader (Merck Elisa reader, Germany), the absorbance was measured at a wavelength of 600 nm to determine the MIC value of each bacterial strain. As a control group, Hp1404 as a mother peptide was used.

The subject of series [3] is E. coli. Kind of series: MIC, E. coli. Format: cell-based, Escherichia coli. The note with it: E. coli (ATCC 25922), 18 hours at 37° C.
Description: as §1, §2

Series [4] can be described thus: Cytotoxicity in normal cell line (MTT). It counts as cell-based. Particulars: human, HaCaT keratinocytes, read-out: Cell survival ability; for viability at 24 h, 6.25 µM: peptide concentration 6.25 μM; for viability at 24 h, 12.5 µM: peptide concentration 12.5 μM; for viability at 24 h, 25 µM: peptide concentration 25 μM; for viability at 24 h, 50 µM: peptide concentration 50 μM; for viability at 24 h, 100 µM: peptide concentration 100 μM; for viability at 24 h, 200 µM: peptide concentration 200 μM, HaCaT. How it is done:
To determine the cytotoxicity of the peptide produced by the method of Example 1 in normal cell line, toxicity was measured by using human keratinocytes (HaCaT cell line, Dr. N E. Fusenig, Heidelberg, Germany).
Specifically, HaCaT cells which have been cultured in DMEM medium containing 10% FBS (Fetal Bovine Serum) were aliquoted in a 96-well plate to have 2×10^5 cells per well. After culturing them for 24 hours, the cells were subjected to a treatment with Hp1404, Hp1404-T1, Hp1404-T1a, Hp1404-T1b, Hp1404-T1c, Hp1404-T1d, or Hp1404-T1e, each at concentration of 6.25, 12.5, 25.0, 50.0, 100.0 or 200.0 μM/well, followed by reaction for 24 hours in a 5% CO2 incubator. After 24 hours, a reaction solution containing 0.5 mg/ml MTT (Thiazolyl Blue Tetrazolium Bromide) dissolved in physiological saline (PBS) was added in an amount of 100 μl to each well and the reaction was allowed to occur for 4 hours. After that, the supernatant was removed, and, by dissolving MTT crystals that are formed by adding 200 μl of DMSO (dimethyl sulfoxide), the absorbance at 560 nm was measured to determine the cell survival ability.

The test system of series [5] is S. aureus. Kind of series: MIC, S. aureus. It counts as cell-based, Staphylococcus aureus. Particulars: S. aureus (ATCC 25923), 18 hours at 37° C.
Description: as §1, §2

The subject of series [6] is erythrocytes of a mouse (Balb/c). Description: Hemolytic activity. Format: cell-based. How it is done:
To compare the cytotoxicity among the peptides that are produced by the method of Example 1, erythrocyte hemolytic activity of the synthesized peptide was measured.
Specifically, erythrocytes of a mouse (Balb/c, 6 week old, female) were diluted in physiological saline (PBS, pH 7.0) to have concentration of 8%, and then subjected to a treatment with Hp1404, Hp1404-T1, Hp1404-T1a, Hp1404-T1b, Hp1404-T1c, Hp1404-T1d or Hp1404-T1e, each at concentration of 6.25, 12.5, 25.0, 50.0, 100.0 and 200.0 μM/well, respectively, followed by a reaction for 1 hour at 37° C. After that, the amount of hemoglobin contained in a supernatant collected by centrifuge at 1,000×g was determined by measuring the absorbance at a wavelength of 414 nm. As a control group to be used as a reference for cell disruption level, the supernatant collected by a treatment with 1% Triton X-100 (Sigma, USA) and a reaction for 1 hour at 37° C. was used to measure the absorbance. By setting the resulting absorbance value at 100%, the hemolytic activity of each peptide was calculated using the following mathematical formula 1. Erythrocyte disrupting ability (hemolysis) (%)=(Absorbance A−Absorbance B)/(Absorbance C−Absorbance B)×100 [Mathematical formula 1] (in the above formula, Absorbance A indicates the absorbance of a reaction solution treated with each peptide, in which the absorbance is measured at a wavelength of 414 nm; Absorbance B indicates the absorbance of a reaction solution treated with PBS, in which the absorbance is measured at a wavelength of 414 nm; and Absorbance C indicates the absorbance of a reaction solution treated with 1% Triton X-100, in which the absorbance is measured at a wavelength of 414 nm).

The test system of series [7] is S. aureus or P. aeruginosa membrane. Description: Flow cytometry with propidium iodide. Format: cell-based. Particulars: 2×MIC, 1 hour at 37° C. How it is done:
Specifically, S. aureus or P. aeruginosa was treated for 1 hour at 37° C. with the mother peptide Hp1404, or Hp1404-T1c, Hp1404-T1d or Hp1404-T1e peptide (at concentration of 2×MIC). After that, the supernatant was removed by centrifuge (10,000 rpm) and stained with propidium iodide (PI, concentration of 10 μg/ml) for 30 minutes at 4° C. Thereafter, unbound propidium iodide was removed by centrifuge, and the problem of cell aggregation phenomenon was solved by adding physiological saline (PBS) in an amount of 1 ml.
In general terms: Flow cytometry measures light scatter and fluorescence of single cells or particles in a stream.

Series [8] concerns lipopolysaccharide (LPS) isolated from P. aeruginosa. Description: Binding ability between lipopolysaccharide (LPS) and peptide. Particulars: peptide at 1×MIC. How it is done: By using the peptides prepared by the method of Example 1, binding to lipopolysaccharide (LPS), which is a constitutional component of a cell wall of Gram-negative bacteria, was examined. LPS used in the present invention was isolated from P. aeruginosa. Lipopolysacchride (0 to 100 μg/ml) was diluted with 10 mM sodium phosphate buffer (pH 7.2), reacted with each peptide at a concentration of 1× or 2×MIC, and then cultured with the bacteria at 2×10^5 CFU/ml. By measuring the absorbance at 600 nm, the binding ability to the peptide was determined. Additionally, after reacting 0.1% […] with the peptide (40 μM) in an incubator, the secondary structure was examined by circular dichroism (CD) spectroscopy.

Series [9] concerns plasmid DNA (pRSETB). Kind of series: Binding between antimicrobial peptide and DNA (gel electrophoresis). Particulars: peptide/DNA ratio 0.25:1 to 4:1, 10 minutes at 37° C. How it is done:
To figure out the working mechanism of the synthetic peptides of the present invention for showing the antimicrobial activity, electrophoresis was carried out to examine the possible binding of synthetic peptides, i.e., Hp1404, […], Hp1404-T1d and Hp1404-T1e, to DNA as an internal material of bacteria.
Specifically, after reacting the plasmid DNA (pRSETB, 260 ng) with the peptide at different ratio (i.e., peptide/DNA ratio is as follows for lane number 1 to lane number 8: DNA only, 0.25:1, 0.5:1, 1:1, 1.5:1, 2:1, 3:1, and 4:1. respectively) for 10 minutes at 37° C., they were subjected to electrophoresis using 1% agarose gel followed by ethidium bromide (EtBr) staining and UV visualization.

Series [10] is described as follows: Stability against trypsin enzyme (RP-HPLC). Format: in vitro ADME. The note with it: 20 nM trypsin, 37° C., read-out: amount of remaining peptide. How it is done:
To determine whether or not the peptides prepared by the method of Example 1 have stability against an enzyme, RP-HPLC (reverse-phase HPLC) was carried out. Specifically, 20 μg of the peptide was reacted with 100 μl of trypsin at concentration of 20 nM for 1 to 2 hours at 37° C. After the reaction, 20 μl of the reaction product was applied to RP-HPLC, and the amount of remaining peptide was examined.

As for `O=C(O)c1cn(C2CC2)c2cc(N3CCNCC3)c(F)cc2c1=O` [ciprofloxacin, reference compound], the wound healing result in series [1] (0.1 mg/ml and 0.2 mg/ml, intracutaneous, observed everyday) was “no wound healing at all”. In addition, the “number of colonies, compared with peptide treatment” value in series [1] (treated after the bacterial infection) was “higher than that obtained from the peptide treatment condition”.

Turning to ILGKLWEGVKSI-NH2 [Hp1404-T1], the Minimal inhibitory concentration in series [2], in series [3] and in series [5] was above 25 µM each time. The viability at 24 h, 6.25 µM in series [4] came out at 100%. Also, in [4], the viability at 24 h, 12.5 µM is 100%. In addition, the viability at 24 h, 25 µM in [4] is 100%. In addition, the viability at 24 h, 50 µM in [4] came to 100%. For the same compound, the viability at 24 h, 100 µM in series [4] was 100%. For the same compound, the viability at 24 h, 200 µM in series [4] turned out to be 100%. Moreover, the Erythrocyte disrupting ability in series [6] (peptide concentration 6.25 μM), in [6] (peptide concentration 12.5 μM), in [6] (peptide concentration 25 μM), in [6] (peptide concentration 50 μM) and in series [6] (peptide concentration 100 μM) was 0% in each case.

Take ILKKLLEGVKSI-NH2 [Hp1404-T1b]: the Minimal inhibitory concentration in series [2], in series [3] and in [5] was above 25 µM each time. The viability at 24 h, 6.25 µM in series [4] is 100%. In addition, the viability at 24 h, 12.5 µM in series [4] came to 100%. Besides, the viability at 24 h, 25 µM in series [4] turned out to be 100%. The viability at 24 h, 50 µM in series [4] was found to be 100%. Further, the viability at 24 h, 100 µM in series [4] was 80.9%. Moreover, the viability at 24 h, 200 µM in [4] came to 31.9%. Further, the Erythrocyte disrupting ability in series [6] (peptide concentration 6.25 μM) is reported as 0.07%; in series [6] (peptide concentration 12.5 μM), 0.19%; in [6] (peptide concentration 25 μM) it was 0%; in series [6] (peptide concentration 50 μM), 0%; in [6] (peptide concentration 100 μM), 0%.

For ILKKLLKGVKSI-NH2 [Hp1404-T1c], the “propidium iodide fluorescence signal shift (membrane damage)” value in [7] is “no such shift of fluorescence signal”. The “binding to LPS, rank order” value in [8] was “binding to LPS increases in order of Hp1404-T1e, Hp1404-T1d, Hp1404-T1c, and Hp1404”. The “binding to DNA” value in series [9] was “did not bind to any DNA”. Besides, the amount remaining at 1 h, 200 μg/mL in series [10] (reaction for 1 hour) was at least 80%. Moreover, the amount remaining at 2 h, 200 μg/mL in series [10] (reaction for 2 hours) turned out to be 80%. The viability at 24 h, 6.25 µM in [4] was found to be 100%. For the same compound, the viability at 24 h, 12.5 µM in series [4] is 100%. The viability at 24 h, 25 µM in [4] was found to be 100%. Further, the viability at 24 h, 50 µM in series [4] came out at 51.3%. Also, the viability at 24 h, 100 µM in [4] was 48.6%. Besides, the Erythrocyte disrupting ability in [6] (peptide concentration 6.25 μM), in series [6] (peptide concentration 12.5 μM), in [6] (peptide concentration 25 μM), in [6] (peptide concentration 50 μM) and in series [6] (peptide concentration 100 μM) was 0% each time.

Regarding ILKKLWEGVKSI-NH2 [Hp1404-T1a], in [4], the viability at 24 h, 6.25 µM worked out at 100%; the viability at 24 h, 12.5 µM amounted to 100%; the viability at 24 h, 25 µM was 100%; the viability at 24 h, 50 µM was 100%. In addition, in series [4], the viability at 24 h, 100 µM was found to be 100% and the viability at 24 h, 200 µM is 30.7%. The same compound showed an Erythrocyte disrupting ability in series [6] (peptide concentration 6.25 μM) of 0%. This compound showed an Erythrocyte disrupting ability in series [6] (peptide concentration 12.5 μM) of 0%. This compound also displayed an Erythrocyte disrupting ability in series [6] (peptide concentration 25 μM) of 0%. The Erythrocyte disrupting ability in series [6] (peptide concentration 50 μM) came out at 0%. The compound also had an Erythrocyte disrupting ability in series [6] (peptide concentration 100 μM) of 0%.

In general, fraction remaining refers to the share of the starting amount still present when the sample was taken.
